Test results published in PubChem BioAssay (NCI).
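GI50 = concentration required for 50% inhibition of growth. TGI: total growth inhibition.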

Tests used:
Assay in all cases: NCI tumour cell line growth inhibition, 384-well format
KM12 colon = system: KM12 colon
SNB-19 CNS = system: SNB-19 CNS
NCI-H460 NSCLC = system: NCI-H460 NSCLC
BT-549 breast = system: BT-549 breast
HCT-15 colon = system: HCT-15 colon
HT29 colon = system: HT29 colon
SK-MEL-5 melanoma = system: SK-MEL-5 melanoma
MDA-MB-468 breast = system: MDA-MB-468 breast
LOX IMVI melanoma = system: LOX IMVI melanoma
MOLT-4 leukemia = system: MOLT-4 leukemia
OVCAR-8 ovarian = system: OVCAR-8 ovarian
SK-MEL-2 melanoma = system: SK-MEL-2 melanoma
MDA-MB-231 breast = system: MDA-MB-231 breast
SF-268 CNS = system: SF-268 CNS
MALME-3M melanoma = system: MALME-3M melanoma
SK-OV-3 ovarian = system: SK-OV-3 ovarian
OVCAR-5 ovarian = system: OVCAR-5 ovarian
786-0 renal = system: 786-0 renal
NCI-H522 lung = system: NCI-H522 lung
TK-10 renal = system: TK-10 renal
HS 578T breast = system: HS 578T breast
SN12C renal = system: SN12C renal
HCT-116 colon = system: HCT-116 colon
ACHN renal = system: ACHN renal
OVCAR-3 ovarian = system: OVCAR-3 ovarian
HCC-2998 colon = system: HCC-2998 colon
SF-295 CNS = system: SF-295 CNS
SW-620 colon = system: SW-620 colon
IGROV1 ovarian = system: IGROV1 ovarian
PC-3 prostate = system: PC-3 prostate
T-47D breast = system: T-47D breast
SK-MEL-28 melanoma = system: SK-MEL-28 melanoma
SNB-75 CNS = system: SNB-75 CNS
CCRF-CEM leukemia = system: CCRF-CEM leukemia
MDA-MB-435 melanoma = system: MDA-MB-435 melanoma
HL-60(TB) leukemia = system: HL-60(TB) leukemia
A549 NSCLC = system: A549 NSCLC
UO-31 renal = system: UO-31 renal
MCF7 breast = system: MCF7 breast
NCI/ADR-RES ovarian = system: NCI/ADR-RES ovarian
A498 renal = system: A498 renal
SF-539 CNS = system: SF-539 CNS
UACC-257 melanoma = system: UACC-257 melanoma
K-562 leukemia = system: K-562 leukemia
RXF 393 renal = system: RXF 393 renal
CAKI-1 renal = system: CAKI-1 renal
NCI-H226 lung = system: NCI-H226 lung

`C[C@H]1C[C@@H](n2c(Nc3ccc(OC(F)(F)F)cc3)nc3cc(CCC(=O)O)ccc32)CC(C)(C)C1` was tested, and the GI50 (KM12 colon) was 13.8 µM, the TGI (KM12 colon) was 26.9 µM and the GI50 (SNB-19 CNS) was 12.5 µM. The TGI (SNB-19 CNS) was 25.1 µM, the GI50 (NCI-H460 NSCLC) was 13.6 µM and the TGI (NCI-H460 NSCLC) was 26.8 µM. It also gave a GI50 (BT-549 breast) of 13 µM, a TGI (BT-549 breast) of 25.8 µM and a GI50 (HCT-15 colon) of 13.9 µM. It also gave a TGI (HCT-15 colon) of 27.1 µM, a GI50 (HT29 colon) of 12.7 µM and a TGI (HT29 colon) of 25.6 µM. It also gave a GI50 (SK-MEL-5 melanoma) of 14.2 µM, a TGI (SK-MEL-5 melanoma) of 27.3 µM and a GI50 (MDA-MB-468 breast) of 13.7 µM. It also gave a TGI (MDA-MB-468 breast) of 28.7 µM, a GI50 (LOX IMVI melanoma) of 16.7 µM and a TGI (LOX IMVI melanoma) of 30.5 µM. For the same compound, the GI50 (MOLT-4 leukemia) was 5.49 µM, the TGI (MOLT-4 leukemia) was 17.4 µM and the GI50 (OVCAR-8 ovarian) was 9.58 µM. It also gave a TGI (OVCAR-8 ovarian) of 22 µM, a GI50 (SK-MEL-2 melanoma) of 17.9 µM and a TGI (SK-MEL-2 melanoma) of 31.8 µM. It also gave a GI50 (MDA-MB-231 breast) of 16.4 µM, a TGI (MDA-MB-231 breast) of 30 µM and a GI50 (SF-268 CNS) of 13 µM. The TGI (SF-268 CNS) was 25.8 µM, the GI50 (MALME-3M melanoma) was 18.3 µM and the TGI (MALME-3M melanoma) was 32.4 µM. The GI50 (SK-OV-3 ovarian) was 18.2 µM, the TGI (SK-OV-3 ovarian) was 32.2 µM and the GI50 (OVCAR-5 ovarian) was 17.2 µM. For the same compound, the TGI (OVCAR-5 ovarian) was 31.1 µM, the GI50 ([…]-0 renal) was 13.8 µM and the TGI (786-0 renal) was 26.8 µM. The GI50 (NCI-H522 lung) was 16.5 µM, the TGI (NCI-H522 lung) was 30.1 µM and the GI50 (TK-10 renal) was 16 µM. For the same compound, the TGI (TK-10 renal) was 29.7 µM, the GI50 (HS 578T breast) was 11 µM and the TGI (HS 578T breast) was 23.1 µM. The GI50 (SN12C renal) was 15.7 µM, the TGI (SN12C renal) was 29.2 µM and the GI50 (HCT-116 colon) was 12.2 µM. It also gave a TGI (HCT-116 colon) of 24.9 µM, a GI50 (ACHN renal) of 15.5 µM and a TGI (ACHN renal) of 30.8 µM. It also gave a GI50 (OVCAR-3 ovarian) of 9.71 µM, a TGI (OVCAR-3 ovarian) of 22.5 µM and a GI50 (HCC-2998 colon) of 14.1 µM. The TGI (HCC-2998 colon) was 27.1 µM, the GI50 (SF-295 CNS) was 11.8 µM and the TGI (SF-295 CNS) was 24.2 µM. For the same compound, the GI50 (SW-620 colon) was 14.6 µM, the TGI (SW-620 colon) was 27.9 µM and the GI50 (IGROV1 ovarian) was 12.7 µM. For the same compound, the TGI (IGROV1 ovarian) was 25.4 µM, the GI50 (PC-3 prostate) was 13.7 µM and the TGI (PC-3 prostate) was 26.8 µM. The GI50 (T-47D breast) was 13.5 µM, the TGI (T-47D breast) was 27.6 µM and the GI50 (SK-MEL-28 melanoma) was 14.3 µM. The TGI (SK-MEL-28 melanoma) was 27.5 µM, the GI50 (SNB-75 CNS) was 20.3 µM and the TGI (SNB-75 CNS) was 34.6 µM. The GI50 (CCRF-CEM leukemia) was 11.9 µM, the TGI (CCRF-CEM leukemia) was 24.3 µM and the GI50 (MDA-MB-435 melanoma) was 14.9 µM. For the same compound, the TGI (MDA-MB-435 melanoma) was 28.3 µM, the GI50 (HL-60(TB) leukemia) was 8.07 µM and the TGI (HL-60(TB) leukemia) was 17.7 µM. It also gave a GI50 (A549 NSCLC) of 7.54 µM, a TGI (A549 NSCLC) of 20.2 µM and a GI50 (UO-31 renal) of 11.9 µM. For the same compound, the TGI (UO-31 renal) was 24.4 µM, the TGI (MCF7 breast) was 19.2 µM and the GI50 (NCI/ADR-RES ovarian) was 16.1 µM. For the same compound, the TGI (NCI/ADR-RES ovarian) was 29.8 µM, the GI50 (A498 renal) was 13.3 µM and the TGI (A498 renal) was 26.2 µM. For the same compound, the GI50 (SF-539 CNS) was 14.5 µM, the TGI (SF-539 CNS) was 27.7 µM and the GI50 (UACC-257 melanoma) was 17.8 µM. The TGI (UACC-257 melanoma) was 31.8 µM, the GI50 (K-562 leukemia) was 12.2 µM and the TGI (K-562 leukemia) was 24.9 µM. For the same compound, the GI50 (RXF 393 renal) was 13 µM, the TGI (RXF 393 renal) was 25.7 µM and the GI50 (CAKI-1 renal) was 17.2 µM. For the same compound, the TGI (CAKI-1 renal) was 31 µM, the GI50 (NCI-H226 lung) was 16.2 µM and the TGI (NCI-H226 lung) was 29.8 µM.
